We go through eleven molecules from patent publication US6753182B1, “Cryopreservation of plant cells” (Phyton, Inc., priority 1995, dated 2004).

Like-named read-outs stand apart in the source and are kept apart here.

Data set [1] concerns Taxus cells. Briefly: Post-thaw viability of cryopreserved Taxus cells (FDA / trypan blue staining). The conditions noted are these: for Survival: 3% mannitol, vitrified 40/30 ethylene glycol/sorbitol, post-thaw. On the procedure:
Culturing cells at high density maximizes the productivity of the cell culture process. […] Cell viability was determined by staining with a 0.05% fluorescein diacetate (FDA) in acetone (J. M. Widholm, Stain Technol 47:189-94, 1972) followed by counting the number of green fluorescein cells upon excitation with blue light in a fluorescence microscope.
After 3 days of incubation in growth medium with mannitol, cells were cold acclimated at 4° C. for 3 hours. Acclimated cells were harvested and transferred to 4 ml cryovials containing a cold vitrifying solution of 40/30 wt % ethylene glycol/sorbitol in media. The vials were incubated at 4° C. for 3 minutes and frozen by immersion into liquid nitrogen. Vials were maintained in liquid nitrogen for at least 10 minutes before use in the thawing experiments.
Vials of frozen cells were removed from liquid nitrogen storage and agitated at 40° C. until the contents are liquefied (1-2 minutes). The liquefied cells were then washed 5 to 6 times with sterile media containing 1 M sorbitol, 3 times with media containing 0.5 M sorbitol media, 3 times with 0.1 M sorbitol media, and 3 times with sorbitol free media. Washing was performed by resuspension of cells in wash media, centrifugation at 50×g for 2 minutes and aspiration of wash media from the cell pellet. Cell viability was determined immediately after thawing.
Various osmotic agents in growth medium were evaluated to determine their effects on the survival of Taxus species cells precultured with the agents, after the preculture period and after thawing of the cryoprotected and frozen Taxus cell suspensions. Cells of three-day cell culture suspensions were precultured in growth medium containing various osmotic agents prior to cryoprotection. Cryoprotected cells were frozen and stored in liquid nitrogen for a minimum of one hour. Viability tests were performed at the end of the preculture period (control) and immediately after thawing of the cryoprotected and frozen cell.
Taxus cells were harvested from cell culture and the biomass resuspended in growth medium containing mannitol at a concentration of 3% for one day or three-days at room temperature. Loaded cells were incubated at 4° C. for 3 hours and transferred to 4 ml cryovials containing cold vitrifying solution comprising 40/30 weight percent ethylene glycol/sorbitol in culture medium. The vials were incubated at 4° C. for three minutes and frozen by liquid nitrogen immersion. Cells contained in the vials were maintained in liquid nitrogen for at least 10 minutes.
Cryopreserved cells were thawed and their viability was determined by FDA and tryptan blue staining procedures.
Cultured Tarus cells were harvested and resuspended in fresh growth medium containing 3% mannitol for 3 days. Cells were cold acclimated for 3 hours and transferred to cryovials containing vitrification solution. Cell suspensions were frozen by liquid nitrogen immersion. Liquid nitrogen frozen cells were thawed by agitating the cryovials in a 40° C. water bath for 1-2 minutes.

Data set [2] has as its system Taxus species cell line KS1A. In words: Post-thaw viability of cryopreserved Taxus cell line KS1A (FDA staining). The data set is classed as cell-based. The method, then: (§1) Cells of Taxus suspension cultures (KS1A) were harvested and precultured with various osmotic agents in the medium. Osmotic agents tested include trehalose, proline, sorbitol (0.15 M-0.8 M), sucrose (2-20%) and mannitol (0.16 M). Viability was evaluated for each cell suspension at the end of the preculture period and immediately after thawing. Regrowth was evaluated after post-thaw osmotic adjustment. The vitrification solutions used were ethylene glycol/sorbitol/pectin and ethylene glycol/sorbitol at 40/30 weight percent in culture medium.
Six to seven day cell suspensions of Taxus species cell line KS1A were pretreated with 3% mannitol for three days at room temperature. Loaded cells were acclimated to the cold by incubating the flasks at 4° C. for 3 hours. Cold acclimated cells were transferred to 4 ml cryovials and cold vitrification solution was added to each and mixed. After vitrification at 4° C. for three minutes, cells were frozen liquid nitrogen immersion. Vials were maintained in liquid nitrogen for at least 10 minutes.
Cryopreserved cells were thawed by transferring vials from liquid nitrogen and agitated in a 40° C. water bath for 1-2 minutes. Post-thaw viability was determined by FDA staining assay.

Data set [3] has as its system Taxus species cell line 12-6. In words: Cell viability and growth before and after cryopreservation, line 12-6. The settings on record: 3% mannitol 3 days, before freezing. Format: cell-based. On the procedure: (§2) Six to seven day old cell suspensions of each cell line were harvested and the biomass resuspended in fresh growth medium containing 3% mannitol. Cells were incubated for 3 days at room temperature and thereafter the loaded cells suspensions were incubated at 4° C. for from 3 hours. Cold acclimated cells were transferred to 4 ml cryovials containing a cold vitrification solution of ethylene glycol/sorbitol 40/30 wt %. The vitrification solution and cells were gently mixed and the vials were incubated at […] for 3 minutes. Thereafter, the cell suspensions were frozen by liquid nitrogen immersion for at least 10 minutes.
(§3) After freezing, the cells were thawed by transferring the frozen vials from liquid nitrogen to a 40° C. water bath for 1-2 minutes. Post-thaw cell viability was determined by FDA staining assay. Cells were washed 5-6 times with cold sterile 1M sorbitol media and resuspended in fresh 1 M in medium.
(§4) The cell suspensions free from toxic cryoprotectants were then each separately filtered using a buchner funnel and Whatmann 541 filter paper under sterile conditions. For each cell suspension, the filter with cells was layered on semisolid growth medium containing 0.5M sorbitol and equilibrated for 30 minutes at room temperature. Paper containing cells was transferred to solid growth medium containing 0.1M sorbitol and incubated for 24 hours. […]

Data set [4] relates to Taxus species cell line 647. Briefly: Cell viability and growth before and after cryopreservation, line 647. Format: cell-based. The conditions noted are these: 3% mannitol 3 days, before freezing. The method, then:
as §2, §3, §4

The test system of data set [5] is Taxus cells. In words: Regrowth of Taxus cells after thawing and osmotic adjustment. The settings on record: after thawing. The data set is classed as cell-based, Taxus species.
The subject of data set [6] is Taxus suspension cultures (KS1A). Briefly: Viability of Taxus KS1A cells at end of preculture period. Format: cell-based, Taxus species. On the procedure: as §1
Data set [7] deals with Taxus cells. Briefly: Viability of Taxus cells at end of preculture period (before freezing). The data set is classed as cell-based, Taxus species. The settings on record: end of preculture period with the osmotic agent, not frozen.
Data set [8] deals with Taxus species cell line 12-14. In words: Cell viability and growth before and after cryopreservation, line 12-14. The settings on record: 3% mannitol 3 days, before freezing. Format: cell-based. The method, then: as §2, §3, §4
Data set [9] has as its system Taxus species cell line 1220. In words: Cell viability and growth before and after cryopreservation, line 1220. Format: cell-based. The settings on record: 3% mannitol 3 days, before freezing. On the procedure: as §2, §3, §4
Data set [10] concerns Taxus species cell line 1224. In words: Cell viability and growth before and after cryopreservation, line 1224. The conditions noted are these: 3% mannitol 3 days, before freezing. Format: cell-based. On the procedure: as §2, §3, §4
The subject of data set [11] is Taxus species cell line KS1A. Briefly: Cell viability and growth before and after cryopreservation, line KS1A. The settings on record: 3% mannitol 3 days, before freezing. The data set is classed as cell-based. On the procedure: as §2, §3, §4
Data set [12] has as its system Taxus species cell line KEIR. In words: Cell viability and growth before and after cryopreservation, line KEIR. The data set is classed as cell-based. The settings on record: 3% mannitol 3 days, before freezing. On the procedure: as §2, §3, §4
The subject of data set [13] is Taxus cells. Briefly: Regrowth of Taxus cells after thawing and osmotic adjustment. The data set is classed as cell-based, Taxus species. The conditions noted are these: after thawing. The method, then:
Cell viability was determined immediately after thawing. The summary of multiple experiments is listed below.
Six to seven day old cell suspensions in growth medium were harvested and the cell biomass resuspended in fresh growth medium containing 0.06 M, 0.12 M, 0.15 M, 0.29 M and 0.58 M sucrose. Cells were cryopreserved, frozen, thawed and osmotically adjusted accordingly. Cell viability was determined immediately after thawing.
This is another data set of the same source.

Data set [14] relates to refractory ovarian, breast and other cancers. The conditions noted are these: clinical trials; cited from earlier work.
Data set [15] concerns microtubles of mammalian cells. The conditions noted are these: cited from earlier work.
The mark [16] stands for this setting: cryoprotectant in vitrification solution: DMSO 5%-30%, propylene glycol 15%, glycerol 20%-30%, PEG-8000 10%, ethylene glycol 20%-50%, 3% mannitol 3 days, after −196° C. storage.
The mark [17] stands for this setting: cryoprotectants ethylene glycol/sorbitol 40/30 weight percent, immediately after thawing, sorbitol 0.15 M-0.8 M, sucrose 2%-20%, mannitol 0.16 M.
[18] abbreviates: end of preculture with osmotic agent (sorbitol 0.15 M-0.8 M, sucrose 2%-20%, mannitol 0.16 M).

In the case of `C[S+](C)[O-]` [DMSO, dimethylsulfoxide], in the data set on Taxus cells [1] (setting [16]), the Viability entry was “≦15%”.

For `OCCO` [Ethylene Glycol, ethylene glycol], the Viability in the data set with Taxus cells [1] (setting [16]) is given as 25%-80%; in the data set with Taxus cells [1] (cryoprotectant in vitrification solution: DMSO 5%-30%, propylene glycol 15%, glycerol 20%-30%, PEG-8000 10%, ethylene glycol 20%-50%, 3% mannitol 3 days, after −196° C. storage, listed as ethylene glycol), “highest viability”.

On to `OCC(O)CO` [Glycerol, glycerol], for which the Viability in the data set on Taxus cells [1] (setting [16]) came to 0%.

Turning to `OC[C@@H](O)[C@@H](O)[C@H](O)[C@H](O)CO` [Mannitol, mannitol], the “Recovery Viability” value is 40-80% in data set [2] (setting [17]) and “highest percent viability” in data set [2] (cryoprotectants ethylene glycol/sorbitol 40/30 weight percent, immediately after thawing, sorbitol 0.15 M-0.8 M, sucrose 2%-20%, mannitol 0.16 M, listed as mannitol). Besides, the “Viability (preculture)” value in [3], in data set [4], in data set [8], in data set [9], in data set [10] and in data set [11] was “≧95%” in each case. In addition, the “Viability (preculture)” value in data set [12] was “≧95%”. Further, the Regrowth entry was “vigorous” in the data set with Taxus cells [5] (0.16 M mannitol preculture 3 days), “slight” in the data set with Taxus cells [5] (0.22 M mannitol preculture 3 days), “slight” in the data set with Taxus cells [5] (0.33 M mannitol preculture 3 days) and “slight” with Taxus cells [5] (0.44 M mannitol preculture 3 days). The Viability in [6] (setting [18]) is reported as 75-95%; in the data set on Taxus cells [1] (Taxus species, 3 days, 0.16 M) it was 60%; with Taxus cells [1] (Taxus species, 3 days, 0.22 M), 30%; with Taxus cells [1] (Taxus species, 3 days, 0.33 M), 30%; in the data set on Taxus cells [1] (Taxus species, 3 days, 0.44 M), 20%. The “Survival (Viability) Control” value with Taxus cells [7] is 50-95%. The “Survival (Viability) Frozen” value in the data set with Taxus cells [1] is “highest percent viability”; in the data set on Taxus cells [1] (Taxus species), 40-80%. Besides, the Survival in the data set with Taxus cells [1] (1 day of preculture) is 50%; in the data set on Taxus cells [1] (3 days of preculture), 40-80%; with Taxus cells [1] (3 days of preculture, listed as mannitol) it was “significantly higher”.

Consider `O=C(O)[C@@H]1CCCN1` [Proline, proline], for which the “Recovery Viability” value in [2] (Taxus species) was below 15%. Further, the Viability in data set [6] (Taxus species) was 50-95%. The “Survival (Viability) Control” value in the data set with Taxus cells [7] is below 50%. Besides, the “Survival (Viability) Frozen” value in the data set with Taxus cells [1] (Taxus species) is recorded as below 15%.

On to `CC(O)CO` (centres unmarked) [Propylene Glycol, propylene glycol], for which the Viability in the data set on Taxus cells [1] (setting [16]) was found to be 0%.

Regarding `OC[C@@H](O)[C@@H](O)[C@H](O)[C@@H](O)CO` [Sorbitol, sorbitol], the “Recovery Viability” value in data set [2] (setting [17]) is 30-70%. The Regrowth entry is on record as “none” in the data set on Taxus cells [5] (0.15 M sorbitol pretreatment); “vigorous” in the data set with Taxus cells [5] (0.22 M sorbitol pretreatment); “vigorous” in the data set on Taxus cells [5] (0.33 M sorbitol pretreatment); “vigorous” in the data set with Taxus cells [5] (0.44 M sorbitol pretreatment); “slight” with Taxus cells [5] (0.80 M sorbitol pretreatment). The Viability in [6] (setting [18]) is listed as 50-95%. Moreover, the “Survival (Viability) Control” value with Taxus cells [7] is on record as 50-95%. In the data set with Taxus cells [1] (Taxus species), the “Survival (Viability) Frozen” value is 30-70%.

As for `OC[C@H]1O[C@@](CO)(O[C@H]2O[C@H](CO)[C@@H](O)[C@H](O)[C@H]2O)[C@@H](O)[C@@H]1O` [Sucrose, sucrose], in data set [2] (Taxus species), the “Recovery Viability” value is on record as <10-40%. In addition, the Regrowth result in the data set with Taxus cells [13] (0.06 M sucrose pretreatment), with Taxus cells [13] (0.12 M sucrose pretreatment), in the data set with Taxus cells [13] (0.15 M sucrose pretreatment), in the data set on Taxus cells [13] (0.29 M sucrose pretreatment) and with Taxus cells [13] (0.58 M sucrose pretreatment) was “slight” each time. Also, the Viability in data set [6] (Taxus species) is recorded as 50-95%. For the same molecule, the “Survival (Viability) Control” value with Taxus cells [7] was 50-95%. Besides, in the data set with Taxus cells [1] (Taxus species), the “Survival (Viability) Frozen” value is listed as 20-50%.

As to `OC[C@H]1O[C@H](O[C@H]2O[C@H](CO)[C@@H](O)[C@H](O)[C@H]2O)[C@H](O)[C@@H](O)[C@@H]1O` [Trehalose, trehalose], the “Survival (Viability) Control” value in the data set on Taxus cells [7] is recorded as 50-95%. In addition, the “Survival (Viability) Frozen” value with Taxus cells [1] (Taxus species) is on record as below 15%.

Regarding `CC(=O)O[C@H]1C(=O)[C@@]2(C)[C@H]([C@H](OC(=O)c3ccccc3)[C@]3(O)C[C@H](OC(=O)[C@H](O)[C@@H](NC(=O)c4ccccc4)c4ccccc4)C(C)=C1C3(C)C)[C@]1(OC(C)=O)CO[C@@H]1C[C@@H]2O` [taxol], the clinical efficacy entry in data set [14] is listed as “extremely effective”. In addition, the “inhibition of the polymerization of microtubles” value in data set [15] is reported as “effectively inhibits”.

For the molecule PEG-8000, the Viability with Taxus cells [1] was 0%.
